Data from patent US20120157402A1, “METHODS FOR TREATING BRAIN TUMORS” (priority 2009, published 2012).
Where two headings read alike, the source gives them in different places. Marks after values point to notes of the source that are not given here.

What was measured:
[1] = Trough plasma concentrations of Compound #10 in HT1080 xenograft mice (HPLC-MS/MS); format: in vivo; settings: athymic nude, mouse, oral, 1 mg/kg BID
[2] = Oral pharmacokinetics in mice; format: in vivo; settings: mouse, plasma, 1-mg/kg dose level, Day 1, read-out: Plasma trough concentration at 24 hours (minimal mean target plasma concentration)
Experimental: The pharmacokinetic evaluations in mice were adjuncts to the primary pharmacodynamic xenograft studies. The evaluations in rats included toxicokinetic assessments in single-dose, 7-day, and 28-day toxicology studies as well as a mass-balance study after a single oral dose of ^14C-Compound #10. The evaluations in dogs included toxicokinetic assessments in 7-day and 28-day toxicology studies. In the studies performed, rodents were dosed once daily with Compound #10 formulated in vehicle and administered via oral gavage.

[3] = Single-dose oral toxicity study in rats; settings: Sprague Dawley, rat, in vivo, single oral gavage, read-out: NOAEL for 1 day of dosing
Experimental: (§1) The L23 vehicle was used.
Because maximal exposure occurred at 100 mg/kg, this dose is considered the NOAEL for 1 day of dosing.

[4] = 7-day oral toxicity study in rats; settings: Sprague Dawley, rat, in vivo
Experimental: as §1
Maximal exposures occurred at a dose of 120 mg/kg/day.

[5] = Phase 1 multiple-dose study in healthy volunteers: pharmacokinetics (Table 28); format: in vivo; settings: human, plasma, oral; for concentration at 24 h: 24 hours after first daily dose, read-out: C24 h; for AUC(0-t): read-out: AUC0-24; for Cmax: read-out: Cmax (after PM dose)
Experimental: The study was performed under the oversight of the French health authorities. The study was not performed under an IND.
Methods. The trial was a Phase 1, randomized, escalating multiple dose, single center study conducted in 2 stages.
Capsules contained 2 mg or 20 mg of active substance.
Capsules contained 20 mg or 25 mg of active substance.
Noncompartmental methods were used to compute Tmax, Cmax, and AUC. Dose proportionality and sex effect were evaluated using ANOVA on log transformed PK parameters using dose, sex, and dose by sex as fixed factors.

in vivo [6] = settings: beagle, dog
Experimental: (§5) The L23 vehicle was used. […] All studies in the toxicology program were conducted according to GLP regulations.

in vivo [7] = settings: both, beagle, dog
Experimental: as §5

in vivo [8] = settings: Sprague Dawley, rat
Experimental: as §5

HT1080 xenografts [9] = assay: Tumor growth in nude mice bearing HT1080 xenografts; format: in vivo, athymic nude mice
Experimental: (§2) In all of these experiments, HT1080 cells (5×10^6 cells/mouse) were implanted subcutaneously in male athymic nude mice. When tumors had become established, mice were divided into groups (10 mice/group). […] Tumor size was measured by calipers at the beginning and end of treatment. At the completion of Compound administration, the mice were sacrificed, and excised tumors were assayed by ELISA for intratumoral VEGF or other angiogenic factors using methods analogous to those described in Section 9.1.1.1.
Experimental Study Design. HT1080 cells (5×10^6 cells/mouse) were implanted subcutaneously in male athymic nude mice.
(§3) Tumor size was measured using calipers at periodic intervals during the study (data shown in Section 9.2.2). […] The study was ended after 18 days, when the vehicle treated tumors reached a mean volume of ˜1755 mm^3. […] Mice were sacrificed, and excised tumors were homogenized in buffer containing protease inhibitors. Both terminal intratumoral and pathologic plasma human VEGF levels were measured using an ELISA that recognizes human VEGF121 and VEGF165 (as described in Section 9.1.1.1). Intratumoral VEGF levels were normalized to the total tumor protein concentration, while pathologic plasma human VEGF levels were expressed in pg/mL of plasma.
Experimental Design. HT1080 cells (5×10^6 cells/mice) were implanted subcutaneously into male athymic nude mice. Treatment with vehicle alone or Compound 1205 was initiated when the median tumor volume was approximately 311±88 mm^3. Table 7 and Table 9 (study design #21 and #23) provide the study design for assessing tumor and plasma pathologic VEGF concentrations—each group in each study included eight (8) mice. When the tumors in vehicle-treated mice had reached the target size of ˜1200 mm^3 for study #21 and ˜1500 mm^3 for study #23, all mice in the study were sacrificed, and excised tumors were homogenized in buffer containing protease inhibitors. Both intra-tumor and pathologic plasma human VEGF levels were measured using an ELISA that recognizes human VEGF121 and VEGF165. Intra-tumor VEGF levels were normalized to the total tumor protein concentration and pathologic plasma VEGF levels were expressed in pg/mL. Because smaller tumors produce less VEGF per mg of tumor protein, intra-tumor VEGF levels were normalized to tumor size.
Experimental Design. HT1080 cells (5×10^6 cells/mouse) were implanted subcutaneously in male athymic nude mice. […] For comparison, Compound #10 was included in this study.
(§4) Experimental Design. HT1080 cells (5×10^6 cells/mouse) were implanted subcutaneously in male athymic nude mice.
Tumor size was measured by calipers immediately pre-treatment and at the time of sacrifice on Day 1, 2, or 3 (5 mice per group per day). At sacrifice, the plasma was collected for assay of pathologic human VEGF concentration using an ELISA that recognizes human VEGF121 and VEGF165 (as described in Section 9.1.1.1).

D245MG-PR cells = assay: D245MG-PR (procarbazine-resistant) lethality model of GBM, monotherapy and with temozolomide; format: in vivo, Balb/C nu/nu mice; settings: Cpd #10 10 mg/kg oral QD from Day 3; TMZ 250 mg/kg IP from Day 5 (control 70 days)
Experimental: Forty (40) female Balb/C nu/nu mice at least 6 weeks of age but not more than 12 weeks at study initiation, weighing at study initiation 18-28 g, were implanted intracranially. D245MG-PR cells (procarbazine-resistant cells derived from an adult human GBM tumor) in a medium using a 25-gauge needle. Mice were anesthetized with Ketamine/Rompun cocktail prior to IC implantation. The day of tumor cell implantation was designated as Day 0. Animals were randomly assigned to treatment groups (10 mice per treatment group).
Mice in Group 1 were administered L21 vehicle alone orally once per day beginning on Day 3. […] Mice in Group 3 were administered 250 mg/kg TMZ intraperitoneally (IP) beginning on Day 5.
Body weights were measured the day that dosing was initiated and once a week thereafter. Observations were made on animals that died or were sacrificed at an unscheduled interval. Animals were sacrificed if moribund.

[10] = tested on: human VEGF121 and VEGF165; assay: Intratumoral and plasma human VEGF (ELISA) in nude mice bearing HT1080 xenografts; format: in vivo, athymic nude mice; settings: Day 1; Compound #10 10 mg/kg oral QD, doxorubicin 6 mg/kg IP, bevacizumab 5 mg/kg IP single bolus
Experimental: as §2
as §3, with “Intratumoral VEGF levels were normalized to the total tumor protein concentration, while pathologic plasma human VEGF levels were expressed in pg/mL of plasma.” left out
Experimental Design. […] Both intra-tumor and pathologic plasma human VEGF levels were measured using an ELISA that recognizes human VEGF121 and VEGF165. […]
Tumor size was measured by calipers immediately pre-treatment and at the time of sacrifice on Day 1, 2, or 3 (5 mice per group per day). […]

HT1080 xenografts [11] = assay: BrdU labeling of tumor cells from HT1080 xenografts in nude mice; format: in vivo, athymic nude mice; settings: Days 1-3; Compound #10 10 mg/kg oral QD, doxorubicin, bevacizumab
Experimental: as §4
The mice were sacrificed 3 hours later, and the tumors collected. A single cell suspension was prepared from the tumor cells. The cells were permeabilized and an antibody to BrdU was used to stain cells that had entered S phase during the labeling period. The proportion of cells actively synthesizing DNA was determined by cell sorting.

[12] = tested on: soluble VEGF121 and VEGF165; assay: Inhibition of soluble VEGF production in human tumor cell lines, ELISA EC50 (Table 4); format: cell-based; settings: tumor cells, data not shown
Experimental: Study Design. […] In these experiments, cultures were established under normoxic conditions (21% oxygen). […] Cells requiring induction of VEGF production were incubated under hypoxic conditions (1% oxygen). At the completion of treatment, the conditioned media were collected and assayed by ELISA (as described in Section 9.1.1.1) for soluble VEGF121 and VEGF165 isoforms; results were calculated as percentage inhibition relative to vehicle treated controls. EC50 values were calculated from the dose concentration response curves.

HT1080 cells = assay: Cell cycle analysis in HT1080 cells, propidium iodide flow cytometry (Table 24; reversibility); format: cell-based, human; settings: tumor cells, data not shown
Experimental: Experimental Design. […] After treatment, cells were trypsinized, and stained with propidium iodide (PI) dye to measure DNA content of individual cells by flow cytometry. Output comprised histograms showing relative DNA content in 10,000 cells.
While compounds which cause greater than 20% of the cells to accumulate in S-phase at 100 nM are considered active, a larger percentage of cells may be accumulated in S-phase at lower doses depending on the Compound, as shown in FIG. 12 for example.

[13] = both sexes, 0.3 mg/kg, Stage 1, 0.3 mg/kg BID, Day 1, mean
[14] = both sexes, 0.3 mg/kg, Stage 1, 0.3 mg/kg BID, Day 7, mean
[15] = both sexes, 0.6 mg/kg, Stage 1, 0.6 mg/kg BID, Day 1, mean

With `COc1ccc([C@H]2c3[nH]c4ccc(Cl)cc4c3CCN2C(=O)Oc2ccc(Cl)cc2)cc1` (racemic) [Compound #10] the concentration at 16 h ([1]; 16 hours after the first day of dosing (n=3), read-out: Mean trough plasma concentration) was 130 ng/mL, the concentration at 16 h ([1]; 16 hours after the first day of dosing (n=3), read-out: Mean trough plasma concentration (value in brackets)) was 280 ng/mL and the concentration at 16 h ([1]; 16 hours after the last dose on Day 18 (n=4), read-out: Steady state mean trough plasma concentration) was 820 ng/mL. The concentration at 24 h [2] was 100 to 150 ng/mL, the NOAEL at 1 day [3] was 100 mg/kg and the NOAEL at 7 days ([4]; female rats) was 120 mg/kg/day. For the same compound, the NOAEL at 7 days ([4]; male rats) was 40 mg/kg/day, the concentration at 24 h ([5]; both sexes, 0.3 mg/kg BID, Stage 1, 0.3 mg/kg BID, Day 1, mean) was 94 ng/mL and the concentration at 24 h ([5]; both sexes, 0.3 mg/kg BID, Stage 1, 0.3 mg/kg BID, Day 7, mean) was 210 ng/mL. For the same compound, the AUC(0-t) [5, 13] was 4310 ng·h/mL, the Cmax [5, 13] was 480 ng/mL and the Tmax ([5]; both sexes, 0.3 mg/kg, Stage 1, 0.3 mg/kg BID, Day 1, mean, read-out: Tmax (after PM dose)) was 3.16 h. The AUC(0-t) [5, 14] was 8440 ng·h/mL, the Cmax [5, 14] was 590 ng/mL and the concentration at 24 h ([5]; both sexes, 0.6 mg/kg BID, Stage 1, 0.6 mg/kg BID, Day 1, mean) was 260 ng/mL. For the same compound, the concentration at 24 h ([5]; both sexes, 0.6 mg/kg BID, Stage 1, 0.6 mg/kg BID, Day 7, mean) was 540 ng/mL, the AUC(0-t) [5, 15] was 10100 ng·h/mL and the Cmax [5, 15] was 970 ng/mL. For the same compound, the Tmax ([5]; both sexes, 0.6 mg/kg, Stage 1, 0.6 mg/kg BID, Day 1, mean, read-out: Tmax (after PM dose)) was 3.17 h, the Cmax ([5]; both sexes, 0.6 mg/kg, Stage 1, 0.6 mg/kg BID, Day 7, mean) was 1160 ng/mL and the Tmax ([5]; both sexes, Stage 1 and Stage 2, read-out: Mean Tmax) was roughly 3 h. For the same compound, the AUC(0-t) ([5]; both sexes, Stage 1, 0.6 mg/kg BID, Day 7, mean) was 18600 ng·h/mL, the Tmax ([5]; both, […], Stage 2, […] TID, Day 1, mean, read-out: Tmax (after PM dose)) was 2.5 h and the Tmax ([5]; both, Stage 1, 1.2 mg/kg BID, Day 1, mean, read-out: Tmax (after PM dose)) was 3 h. For the same compound, the NOAEL at 7 days (in vivo [6]) was 60 mg/kg/day, the NOAEL at 28 days (in vivo [7]) was 30 mg/kg/day and the NOAEL at 28 days (in vivo [8]) was 12 mg/kg/day.
For `O=C(Oc1ccc(Cl)cc1)N1CCc2c([nH]c3ccc(Cl)cc23)[C@@H]1c1ccc(OCC[C@H](O)CO)cc1` [Compound 1205], the “Mean difference in tumor growth rate at the Day that the vehicle-treated tumors taken off study (%)” value (“Mean difference in tumor growth rate … (%)” below) (HT1080 xenografts [9]; Study 21, 3 mg/kg QD, Day 14) was 80%**, the “Mean difference in tumor growth rate … (%)” value (HT1080 xenografts [9]; Study 22, 0.5 mg/kg QD, Day 11) was 62%** and the “Mean difference in tumor growth rate … (%)” value (HT1080 xenografts [9]; Study 22, 3 mg/kg QD, Day 11) was 75%**. The “Mean difference in tumor growth rate … (%)” value (HT1080 xenografts [9]; Study 23, 1 mg/kg QD, Day 14) was 59%**, the “Mean difference in tumor growth rate … (%)” value (HT1080 xenografts [9]; Study 24a, 10 mg/kg QD, Day 11) was 76%** and the “Mean difference in tumor growth rate … (%)” value (HT1080 xenografts [9]; Study 24b, 0.3 mg/kg QD, Day 15) was 28% ^.
`Cn1nnc2c(C(N)=O)ncn2c1=O` [TEMODAR, temozolomide] gave a Median survival time (D245MG-PR cells) of 86 days.
In the case of `COc1cccc2c1C(=O)c1c(O)c3c(c(O)c1C2=O)C[C@@](O)(C(=O)CO)C[C@@H]3O[C@H]1C[C@H](N)[C@H](O)[C@H](C)O1` [doxorubicin], the “Pathologic plasma human VEGF levels vs control” value [10] was “numerically lower than in control animals by Day 1” and the “BrdU staining of tumor cells (fraction in S phase)” value (HT1080 xenografts [11]) was “decreased the percentage of tumor cells staining with BrdU”.
In the case of `NC(Cn1ccc(=O)c(O)c1)C(=O)O` (centres unmarked) [mimosine], the VEGF production [12] was “does not delay or prolong the cell cycle or reduce VEGF production” and the “Cell cycle delay or prolongation” value (HT1080 cells) was “does not delay or prolong the cell cycle or reduce VEGF production”.
